According to article PMC9299640, “Incorporation of β‐Alanine in Cu(II) ATCUN Peptide Complexes Increases ROS Levels, DNA Cleavage and Antiproliferative Activity” (Chemistry (Weinheim an Der Bergstrasse, Germany), 2021):
Where a SMILES comes first, the peptide text is derived from it. Where no end group is shown, it is not given here. [ ]: non-standard residue; d: D form. βAla = NCCC(=O)O

How the values were obtained:
[1] = Potentiometric titration of peptides with CuCl2: Cu(II) binding constants and competitivity index at pH 7.4; assay type: physicochemical; conditions: 25 °C, I=0.1 (KNO3); for CI7.4 (competitivity index, log K CuZ): calculated at pH 7.4 for 1 mM Cu(II), peptide L and virtual competitive ligand Z from potentiometric stability constants; for log *K4N (protonation-corrected stability constant of Cu(II) 4N complex): log β{CuHn-4L} – log β{HnL}; for log β CuH-2L / log β CuH-3L / log β CuL / log β CuH-1L / log β CuHL: 1 mM peptide, Cu:peptide 1:1, 1:2, 1:3
Procedure: (§1) Key factors for the investigation of the biological activity of metal complexes are the complex stability and the detection of the active species at a physiological pH value of 7.4.[27] Thus, potentiometric titration experiments of peptides a–g (b) alone and in the presence of CuCl2 (logarithmic protonation (log β) and protonation‐corrected Cu(II) binding constants (log *K)) and pH‐metric UV/VIS and CD spectroscopic measurements of 1–7 (2 [26]) were carried out (S‐5).
(§2) S-5 Protonation and complex stability constants
(§3) All bioanalytical experiments (DNA cleavage, DNA binding and ROS detection studies) and cell studies (cytotoxicity and cellular uptake) were carried out at pH 7.4. To characterize the speciation of the ATCUN metallopeptides at this pH, potentiometric titrations in combination with UV/VIS and CD spectroscopy were carried out for 1 and 3-7.
(§4) S-5.1 Potentiometry, UV/VIS and circular dichroism (CD) spectroscopy […]
(§5) Potentiometric titrations were performed on a 907 Titrando Automatic Titrator (Metrohm) using a Biotrode combined glass electrode (Metrohm), calibrated daily by nitric acid titrations with the use of standardized 100 mM NaOH (carbon dioxide-free) as a […]
Stock solution preparation:
Stock solutions of peptides a and c–g for UV/VIS and CD experiments were prepared by dissolving given amounts of peptides in carbon dioxide-free Milli-Q® water.
Samples (1.5 mL volume, 1 mM peptide) were prepared in 4 mM HNO3/96 mM KNO3 solution. To calculate ligand (peptide) concentrations and their protonation constants, at least three consecutive potentiometric titrations were performed.
Three samples (1.5 mL) of 1 mM peptide and CuCl2 with Cu : peptide ratios of 1:1, 1:2 and 1:3 were prepared in 4 mM HNO3/96 mM KNO3. Each sample was titrated separately using a standardized 100 mM NaOH solution. The pH range for all potentiometric […]
All ligand and complex titrations were performed under argon at 25 °C. The data was analyzed using the SUPERQUAD and HYPERQUAD programs.
For the determination of Cu(II) stability constants, peptides a and c–g UV/VIS spectra were recorded in a range of 250–900 nm with a scan resolution of 1 nm, and a scan speed of 0.5 s/nm on a Lambda 950 UV/VIS/NIR spectrophotometer (PerkinElmer). The samples of 1 mM peptide/0.8 mM CuCl2 were prepared in 1 cm path length quartz cuvettes (Hellma) and titrated with small amounts of concentrated NaOH solution. Usually the pH-metric titration spanned from pH 2.9 to pH 12.5. […]
(§6) Table S5. Logarithmic protonation and Cu(II) binding constants (log β and pK) of peptides a-g (b not measured), determined by potentiometry at 25 °C and I=0.1 (KNO3), and competitivity index (CI) values calculated at pH 7.4 for 1 mM Cu(II) and peptides based on respective stability constants.
(§7) Statistical errors on the last digits of log β values, provided by HYPERQUAD, are given in parentheses. […]
(§8) log β pK log β pK log β pK log β pK log β pK log β pK
CuH3L - - - - - - - - - -
CI: Competitivity index calculated for pH 7.4 and peptide L, Cu(II) and Z concentrations of 0.001 M. CI is log KCuZ fulfilling the condition Σijk([CuiHjLk]=[CuZ].3 log *K4N is a protonation-corrected stability constant allowing to compare peptides with different protonation states forming the same type of complexes In general log*KxN, where x stand for number of coordinated nitrogens can be described by log *KxN = log β{CuHn-xL} – log β{HnL} HnL stands for the protonation of coordinating histidine (in position 3 from N-terminus in case of ATCUN motifs) […]
Peptides can be compared easily between each other using both protonation-corrected stability constant (log *K4N) and Competitivity Index at pH 7.4 (CI7.4):
(§9) For log *K4N, the higher the number (less negative value) the higher stability of Cu(II) complexes (only relative meaning – no interpretation of concentrations of species possible).
For CI7.4, the higher the number the higher the stability. […]

[2] = Potentiometric titration of peptides: protonation constants; assay type: physicochemical; conditions: protonation constant, potentiometry, 1 mM peptide, error on last digit in parentheses; for log β H2L / log β HL / log β H3L: 25 °C, I=0.1 (KNO3)
Procedure: as §1, §2, §3, §4, §5
Stock solution preparation: […]
Samples (1.5 mL volume, 1 mM peptide) were prepared in 4 mM HNO3/96 mM KNO3 solution. To calculate ligand (peptide) concentrations and their protonation constants, at least three consecutive potentiometric titrations were performed. […]
The pH range for all potentiometric
All ligand and complex titrations were performed under argon at 25 °C. The data was analyzed using the SUPERQUAD and HYPERQUAD programs. […]
as §6, §7, §8
CuH3L - - - - - - - - - - […]
as §9
For CI7.4, the higher the number the higher the stability. CI is the affinity constant for the imaginary CuZ complex which is equivalent in strength to the probed complex/set of complexes. The advantage of CI is that its unit is M-1, and can be compared with log K values for real complexes.

[3] = potentiometry, error on last digit in parentheses

Compound | pK CuH-2L ([1]; Cu(II) species, potentiometry) | pK CuH-3L ([1]; Cu(II) species, potentiometry) | CI7.4 (competitivity index, log K CuZ) [1] | log *K4N (protonation-corrected stability constant of Cu(II) 4N complex) ([1]; potentiometry) | log β CuH-2L [1, 3] | log β CuH-3L [1, 3] | log β CuL [1, 3] | log β H2L [2] | log β HL [2] | pK CuH-1L ([1]; Cu(II) species, potentiometry) | pK CuL ([1]; Cu(II) species, potentiometry) | log β CuH-1L [1, 3] | log β CuH2L ([1]; potentiometry, 4 mM HNO3/96 mM KNO3, 1 mM peptide, Cu:peptide 1:1, 1:2, 1:3, pH 2.7-11.6, argon, error on last digit in parentheses) | log β H4L ([2]; 4 mM HNO3/96 mM KNO3, 25 °C, I=0.1, argon, at least three titrations) | log β H3L [2] | log β CuHL [1, 3]
NCC(=O)NCCC(=O)N[C@@H](Cc1c[nH]cn1)C(=O)NCC(=O)N[C@@H](CO)C(=O)N[C@@H](CO)C(N)=O [Peptide c] (H-G[βAla]HGSS-NH2) | 5.65 | 10.4 | 9.915 | -18.426 | -4.160(5) | -14.560(8) | 7.137(5) | 14.266(3) | 8.001(2) |  |  |  |  |  |  | 
NCCCC[C@H](NC(=O)[C@H](Cc1c[nH]cn1)NC(=O)CCNC(=O)[C@@H](N)CCCCN)C(=O)N[C@@H](CO)C(=O)N[C@@H](CO)C(N)=O [d] (H-K[βAla]HKSS-NH2) | 10.41 |  | 10.31 | -17.537 | -4.068(6) |  | 16.338(4) | 20.563(2) | 10.656(3) | 10.00 | 5.13 | 6.337(8) | 26.604(9) | 33.875(4) | 27.860(3) | 
GGHGSS-NH2 [a] |  | 11.79 | 13.61 | -14.747 | -0.587(5) | -12.38(2) |  | 14.160(2) | 7.853(1) |  |  |  |  |  |  | 

Other lines, results leading:

pK CuH-2L ([1]; Cu(II) species, potentiometry) | pK CuH-3L ([1]; Cu(II) species, potentiometry) | CI7.4 (competitivity index, log K CuZ) [1] | log *K4N (protonation-corrected stability constant of Cu(II) 4N complex) ([1]; potentiometry) | log β CuH-2L [1, 3] | log β CuH-3L [1, 3] | log β CuL [1, 3] | log β H2L [2] | log β HL [2] | pK CuH-1L ([1]; Cu(II) species, potentiometry) | pK CuL ([1]; Cu(II) species, potentiometry) | log β CuH-1L [1, 3] | log β CuH2L ([1]; potentiometry, 4 mM HNO3/96 mM KNO3, 1 mM peptide, Cu:peptide 1:1, 1:2, 1:3, pH 2.7-11.6, argon, error on last digit in parentheses) | log β H4L ([2]; 4 mM HNO3/96 mM KNO3, 25 °C, I=0.1, argon, at least three titrations) | log β H3L [2] | log β CuHL [1, 3] | Compound
4.92 | 11.58 | 11.28 | -16.804 | -3.104(3) | -14.683(9) | 6.743(7) | 13.700(3) | 7.584(3) |  |  |  |  |  |  |  | NC(=O)[C@H](CO)NC(=O)[C@H](CO)NC(=O)[C@H](Cc1c[nH]c2ccccc12)NC(=O)[C@H](Cc1c[nH]cn1)NC(=O)CCNC(=O)[C@@H](N)Cc1c[nH]c2ccccc12 [e] (H-W[βAla]HWSS-NH2)
10.12 | 11.17 | 10.52 | -17.435 | -3.840(7) | -15.007(8) |  | 17.632(4) | 10.262(3) | 5.06 |  | 6.280(3) |  |  | 23.715(5) | 16.406(9) | NCCCC[C@H](N)C(=O)NCCC(=O)N[C@@H](Cc1c[nH]cn1)C(=O)N[C@@H](Cc1c[nH]c2ccccc12)C(=O)N[C@@H](CO)C(=O)N[C@@H](CO)C(N)=O [f] (H-K[βAla]HWSS-NH2)
10.10 |  | 11.29 | -16.738 | -2.987(9) |  |  | 17.755(5) | 10.255(3) | 4.82 |  | 7.108(5) |  |  | 23.846(5) | 16.75(1) | NCCCC[C@H](NC(=O)[C@H](Cc1c[nH]cn1)NC(=O)CCNC(=O)[C@@H](N)Cc1c[nH]c2ccccc12)C(=O)N[C@@H](CO)C(=O)N[C@@H](CO)C(N)=O [g] (H-W[βAla]HKSS-NH2)
